Source: EP4707280A1, “1,4-CINEOLE DERIVATIVE AND INTERMEDIATE THEREOF, HERBICIDE CONTAINING SAID DERIVATIVE AS ACTIVE INGREDIENT, METHOD FOR USING HERBICIDE, AND METHOD FOR PREPARING AGROCHEMICAL COMPOSITION” (HOKKO CHEMICAL INDUSTRY CO., LTD., priority 2023, dated 2024)

Tests used:
Format in all cases: in vivo
[1] = tested on: Echinochloa crus-galli; test: Test Example 7: herbicidal effect test by soil application in upland field (low dose); conditions: Echinochloa crus-galli, 7.5 g per 10 ares, sprayed one day after sowing, 14 days after application, read-out: weed inhibition rate
Procedure, shortened: (§1)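 Pre-emergence soil application: upland alluvial loam pots sown with weed seeds mixed into the top 1 cm; one day after sowing, a water-diluted emulsifiable concentrate was sprayed on the soil at 100 L per 10 a, delivering 7.5 g active ingredient per 10 a. Weed inhibition rate (%) scored 14 days after application, duplicate pots.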

[2] = tested on: Digitaria ciliaris; test: as above; conditions: Digitaria ciliaris, 7.5 g per 10 ares, sprayed one day after sowing, 14 days after application, read-out: weed inhibition rate
Procedure, shortened: as §1

[3] = tested on: Chenopodium album; test: Test Example 3: herbicidal effect test by soil application in upland field; conditions: 120 g per 10 ares, sprayed one day after sowing, 14 days after application, read-out: weed inhibition rate
Procedure, shortened: (§2)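 Weed inhibition (%) was assessed 14 days after treatment, in duplicate per concentration group. Seeds had been mixed into the upper 1 cm of upland alluvial loam, and the soil surface was sprayed one day later with the diluted emulsifiable concentrate at 120 g active ingredient per 10 ares.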

[4] = tested on: Amaranthus viridis; test: as above; conditions: Amaranthus viridis, 120 g per 10 ares, sprayed one day after sowing, 14 days after application, read-out: weed inhibition rate
Procedure, shortened: as §2

[5] = tested on: Echinochloa crus-galli; test: as above; conditions: Echinochloa crus-galli, 120 g per 10 ares, sprayed one day after sowing, 14 days after application, read-out: weed inhibition rate
Procedure, shortened: as §2

[6] = tested on: Digitaria ciliaris; test: as above; conditions: Digitaria ciliaris, 120 g per 10 ares, sprayed one day after sowing, 14 days after application, read-out: weed inhibition rate
Procedure, shortened: as §2

[7] = tested on: Digitaria ciliaris; test: Test Example 4: herbicidal effect test by stem and leaf treatment in upland field; conditions: Digitaria ciliaris; 120 g per 10 ares; sprayed seven days after sowing, upland soil; 14 days after application; read-out: weed inhibition rate
[8] = tested on: Monochoria vaginalis; test: Test Example 6: herbicidal effect test by application during growth period of paddy rice (low dose); conditions: Pontederia vaginalis; 7.5 g per 10 ares; applied seven days after sowing, flooded pots; 14 days after application; read-out: weed inhibition rate
Procedure, shortened: (§3)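 Puddled, fertilised paddy soil was sown with 30 seeds per species and flooded to about 3 cm. After 7 days in a glass greenhouse, the diluted emulsifiable concentrate went into the water by dropper at 7.5 g/10 a. Effect scored at 14 days.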

[9] = tested on: Echinochloa crus-galli var. formosensis; test: as above; conditions: Echinochloa crus-galli; 7.5 g per 10 ares; applied seven days after sowing, flooded pots; 14 days after application; read-out: weed inhibition rate
Procedure, shortened: as §3

[10] = tested on: Scirpus juncoides; test: as above; conditions: Schoenoplectiella juncoides; 7.5 g per 10 ares; applied seven days after sowing, flooded pots; 14 days after application; read-out: weed inhibition rate
Procedure, shortened: as §3

[11] = tested on: Echinochloa crus-galli var. formosensis at the three-leaf stage; test: Comparative Example: herbicidal effect test by application during growth period of paddy rice (three-leaf stage, Table 7); conditions: 504 h, active ingredient 7.5 g per 10 ares, emulsifiable concentrate applied by dropper to flooded pots, 21 days after chemical application, triplicate, read-out: Weed inhibition rate (%)
Protocol: As an example, the herbicidal effect on Echinochloa crus-galli var. formosensis at the three-leaf stage was confirmed by the following method, and the results are specifically shown in Table 7 as a comparative example.
Wagner pots with an area of […] were filled with paddy soil, followed by addition of water and incorporation of chemical fertilizer (N:P:K = 16:16:16), after which puddling was performed. After that, 30 seeds of Echinochloa crus-galli var. formosensis were sown at a depth of 0 cm to 1 cm. Immediately after sowing, the pots were flooded and a water depth of approximately 3 cm was maintained. Subsequent management was conducted in a glass greenhouse. When Echinochloa crus-galli var. formosensis reached the three-leaf stage, an emulsifiable concentrate prepared according to Formulation Example 5 using the compound shown below was diluted with water, and a specified amount of the diluted solution was applied by dropper. The amount of the active ingredient to be applied was equivalent to 7.5 g per 10 ares. The test was conducted in triplicate for each chemical concentration group, and the weed inhibition rate (%) was determined 21 days after chemical application using the following formula (Math. 1).

SMILES	inhibition at 75 g/ha [1]	inhibition at 75 g/ha [2]	inhibition at 1200 g/ha [3]	inhibition at 1200 g/ha [4]	inhibition at 1200 g/ha [5]	inhibition at 1200 g/ha [6]	inhibition at 1200 g/ha [7]	inhibition at 75 g/ha [8]	inhibition at 75 g/ha [9]	inhibition at 75 g/ha [10]	inhibition at 75 g/ha [11]
CO[C@H]1C[C@]2(C)O[C@@]1(C(C)C)C[C@H]2OCc1ccccc1F [1-156, (1S,2R,4R,5S)-2-((2-fluorobenzyl)oxy)-4-isopropyl-5-methoxy-1-methyl-7-oxabicyclo[2.2.1]heptane]	≥ 80%	≥ 80%	≥ 80%	≥ 80%	≥ 80%	≥ 80%	≥ 80%	≥ 80%	≥ 80%	≥ 80%	–
C#CCO[C@@H]1C[C@]2(C)O[C@@]1(C(C)C)C[C@H]2OCc1ccccc1F [1-931, (1S,2R,4R,5R)-2-[(2-fluorophenyl)methoxy]-1-methyl-4-isopropyl-5-prop-2-ynoxy-7-oxabicyclo[2.2.1]heptane]	≥ 80%	≥ 80%	≥ 80%	≥ 80%	≥ 80%	≥ 80%	≥ 80%	≥ 80%	≥ 80%	≥ 80%	–
CC(C)[C@]12C[C@@H](OCc3ccccc3F)[C@](C)(C[C@@H]1I)O2 [1-753, (1S,2R,4R,SS)-2-[(2-fluorophenyl)methoxy]-5-iodo-1-methyl-4-isopropyl-7-oxabicyclo[2.2.1]heptane]	≥ 80%	≥ 80%	–	≥ 80%	≥ 80%	≥ 80%	–	≥ 80%	≥ 80%	–	93%
CC(C)[C@]12C[C@@H](OCc3ccccc3F)[C@](C)(CC1=O)O2 [2-9, (1R,4S,5R)-5-((2-fluorobenzyl)oxy)-1-isopropyl-4-methyl-7-oxabicyclo[2.2.1]heptan-2-one]	≥ 80%	≥ 80%	≥ 80%	≥ 80%	≥ 80%	≥ 80%	≥ 80%	≥ 80%	≥ 80%	≥ 80%	–
CC(C)[C@]12C[C@@H](OCc3ccc(F)cc3)[C@](C)(CC1=O)O2 [2-349, (1R,4S,5R)-5-((4-fluorobenzyl)oxy)-1-isopropyl-4-methyl-7-oxabicyclo[2.2.1]heptan-2-one]	≥ 80%	≥ 80%	≥ 80%	≥ 80%	≥ 80%	≥ 80%	≥ 80%	–	≥ 80%	–	–
CC(C)[C@]12C[C@@H](OCc3c(F)cccc3F)[C@](C)(CC1=O)O2 [2-20, (1R,4S,5R)-5-((2,6-difluorobenzyl)oxy)-1-isopropyl-4-methyl-7-oxabicyclo[2.2.1]heptan-2-one]	≥ 80%	≥ 80%	≥ 80%	≥ 80%	≥ 80%	≥ 80%	≥ 80%	–	≥ 80%	–	–
CC(C)[C@]12C[C@@H](OCc3c(F)cccc3F)[C@](C)(C[C@@H]1O)O2 [1-41, (1R,2S,4S,5R)-5-((2,6-difluorobenzyl)oxy)-1-isopropyl-4-methyl-7-oxabicyclo[2,2,1]heptan-2-ol]	≥ 80%	≥ 80%	≥ 80%	≥ 80%	≥ 80%	≥ 80%	≥ 80%	–	≥ 80%	≥ 80%	–
Cc1ccccc1CO[C@@H]1C[C@]2(C(C)C)O[C@@]1(C)CC2=O [2-3, (1R,4S,5R)-1-isopropyl-4-methyl-5-((2-methylbenzyl)oxy)-7-oxabicyclo[2.2.1]heptan-2-one]	≥ 80%	≥ 80%	≥ 80%	–	≥ 80%	≥ 80%	≥ 80%	≥ 80%	≥ 80%	≥ 80%	–
CC(C)[C@]12C[C@@H](OCc3ccccc3F)[C@](C)(CC1OCC1CC1)O2 (mixture of isomers) [1-921, (1S,2R,4R,SR)-5-(cyclopropylmethoxy)-2-[(2-fluorophenyl)methoxy]-1-methyl-4-isopropyl-7-oxabicyclo[2.2.1]heptane]	≥ 80%	≥ 80%	≥ 80%	≥ 80%	≥ 80%	≥ 80%	≥ 80%	≥ 80%	≥ 80%	≥ 80%	–
CC(C)[C@]12C[C@@H](OCc3ccccc3F)[C@](C)(C[C@@H]1O)O2 [1-30, (1R,2S,4S,5R)-5-((2-fluorobenzyl)oxy)-1-isopropyl-4-methyl-7-oxabicyclo[2.2.1]heptan-2-ol]	≥ 80%	≥ 80%	≥ 80%	≥ 80%	≥ 80%	≥ 80%	≥ 80%	–	≥ 80%	≥ 80%	–
C=CCO[C@@H]1C[C@]2(C)O[C@@]1(C(C)C)C[C@H]2OCc1ccccc1F [1-930, (1S,2R,4R,5R)-2-[(2-fluorophenyl)methoxy]-1-methyl-4-isopropyl-5-prop-2-enoxy-7-oxabicyclo[2.2.1]heptane]	≥ 80%	≥ 80%	≥ 80%	≥ 80%	≥ 80%	≥ 80%	≥ 80%	≥ 80%	≥ 80%	≥ 80%	–
CC(C)[C@]12C[C@@H](OCc3ccccc3F)[C@](C)(CC1C)O2 (stereo partly drawn) [1-92, (1S,2R,4R)-2-((2-fluorobenzyl)oxy)-4-isopropyl-1,5-dimethyl-7-oxabicyclo[2.2.1]heptane]	≥ 80%	≥ 80%	–	–	≥ 80%	≥ 80%	≥ 80%	≥ 80%	≥ 80%	–	100%
CC(C)[C@]12C[C@@H](OCc3ccccc3Cl)[C@](C)(CC1=O)O2 [2-11, (1R,4S,5R)-5-((2-chlorobenzyl)oxy)-1-isopropyl-4-methyl-7-oxabicyclo[2.2.1]heptan-2-one]	≥ 80%	≥ 80%	≥ 80%	≥ 80%	≥ 80%	≥ 80%	≥ 80%	–	≥ 80%	–	–
C=C1C[C@]2(C)O[C@@]1(C(C)C)C[C@H]2OCc1ccccc1C [2-72, (1R,4S,5R)-1-isopropyl-4-methyl-5-((2-methylbenzyl)oxy)-2-methylene-7-oxabicyclo[2.2.1]heptane]	≥ 80%	≥ 80%	≥ 80%	≥ 80%	≥ 80%	≥ 80%	≥ 80%	≥ 80%	≥ 80%	≥ 80%	–
